Source: US20220187282A1, “CARDIOMYOCYTE PROLIFERATION” (The Council of the Queensland Institute of Medical Research, priority 2019, published 2022)
Like-named read-outs stand apart in the source and are kept apart here.

What was measured:
Assay type in all cases: biochemical
kinases [1] = molecular target: kinases (Homo sapiens, UniProt P51817); conditions: PRKX FRET-Z-Lyte SP; Test Conc(μM):ATP Conc(μM) 1:10
kinases [2] = molecular target: kinases (Homo sapiens, UniProt P29376); conditions: LTK (TYK1) FRET-Z-Lyte SP; Test Conc(μM):ATP Conc(μM) 1:75
kinases [3] = molecular target: kinases (Homo sapiens, UniProt P36507)
kinases [4] = molecular target: kinases (Homo sapiens, UniProt O60285); conditions: NUAK1 (ARK5) FRET-Adapta SP; Test Conc(μM):ATP Conc(μM) 1:25
kinases [5] = molecular target: kinases (Homo sapiens, UniProt Q9UHD2); conditions: TBK1 FRET-Z-Lyte SP; Test Conc(μM):ATP Conc(μM) 1:25
kinases [6] = molecular target: kinases (Homo sapiens, UniProt P53350); conditions: PLK1 FRET-Z-Lyte SP; Test Conc(μM):ATP Conc(μM) 1:10
kinases [7] = molecular target: kinases (Homo sapiens, UniProt Q9UKE5); conditions: TNIK FRET-Lantha SP; Test Conc(μM) 1
kinases [8] = molecular target: kinases (Homo sapiens, UniProt Q86V86); conditions: PIM3 FRET-Z-Lyte SP; Test Conc(μM):ATP Conc(μM) 1:1000
kinases [9] = molecular target: kinases (Homo sapiens, UniProt Q16512); conditions: PKN1 (PRK1) FRET-Z-Lyte SP; Test Conc(μM):ATP Conc(μM) 1:50
kinases [10] = molecular target: kinases (Homo sapiens, UniProt Q9UK32); conditions: RPS6KA6 (RSK4) FRET-Z-Lyte SP; Test Conc(μM):ATP Conc(μM) 1:25
kinases [11] = molecular target: kinases (Homo sapiens, UniProt O00238); conditions: BMPR1B (ALK6) FRET-Lantha SP; Test Conc(μM) 1
kinases [12] = molecular target: kinases (Homo sapiens, UniProt Q07912); conditions: TNK2 (ACK) FRET-Lantha SP; Test Conc(μM) 1
kinases [13] = molecular target: kinases (Homo sapiens, UniProt Q76MJ5); conditions: ERN2 FRET-Lantha SP; Test Conc(μM) 1
kinases [14] = molecular target: kinases (Homo sapiens, UniProt Q15303); conditions: ERBB4 (HER4) *Mn* Z-Lyte SP; Test Conc(μM):ATP Conc(μM) 1:5
kinases [15] = molecular target: kinases (Homo sapiens, UniProt Q9Y616); conditions: IRAK3 FRET-Lantha SP; Test Conc(μM) 1
kinases [16] = molecular target: kinases (Homo sapiens, UniProt O75914); conditions: PAK3 FRET-Z-Lyte SP; Test Conc(μM):ATP Conc(μM) 1:100
kinases [17] = molecular target: kinases (Homo sapiens, UniProt P21709); conditions: EPHA1 FRET-Z-Lyte SP; Test Conc(μM):ATP Conc(μM) 1:25
kinases [18] = molecular target: kinases (Homo sapiens, UniProt Q8IY84); conditions: NIM1K FRET-Z-Lyte SP; Test Conc(μM):ATP Conc(μM) 1:10
kinases [19] = molecular target: kinases (Homo sapiens, UniProt P06493)
kinases [20] = molecular target: kinases (Homo sapiens, UniProt O75747); conditions: PIK3C2G FRET-Adapta SP; Test Conc(μM):ATP Conc(μM) 1:10
kinases [21] = molecular target: kinases (Homo sapiens, UniProt Q13555); conditions: CAMK2G FRET-Lantha SP; Test Conc(μM) 1
kinases [22] = molecular target: kinases (Homo sapiens, UniProt Q8TF76); conditions: GSG2 (Haspin) FRET-Adapta SP; Test Conc(μM):ATP Conc(μM) 1:25
kinases [23] = molecular target: kinases (Homo sapiens, UniProt P05129); conditions: PRKCG (PKC gamma) Z-Lyte SP; Test Conc(μM):ATP Conc(μM) 1:25
kinases [24] = molecular target: kinases (Homo sapiens, UniProt Q9UL54); conditions: TAOK2 (TAO1) FRET-Z-Lyte SP
kinases [25] = molecular target: kinases (Homo sapiens, UniProt Q9H2G2); conditions: SLK Hu Bind FRET-Lantha SP; Test Conc(μM) 1
kinases [26] = molecular target: kinases (Homo sapiens, UniProt P29597); conditions: TYK2 FRET-Z-Lyte SP; Test Conc(μM):ATP Conc(μM) 1:25
kinases [27] = molecular target: kinases (Homo sapiens, UniProt Q9UF33); conditions: EPHA6 FRET-Lantha SP; Test Conc(μM) 1
kinases [28] = molecular target: kinases (Homo sapiens, UniProt Q15569); conditions: TESK1 FRET-Lantha SP; Test Conc(μM) 1
[29] = MAP2K2 (MEK2) FRET-Lantha SP, Test Conc(μM) 1
[30] = MAP2K2 (MEK2)Cascade Z-Lyte SP, Test Conc(μM):ATP Conc(μM) 1:100
[31] = CDK1/cyclin A2 FRET-Lantha SP, Test Conc(μM) 1
[32] = CDK1/cyclin B FRET-Z-Lyte SP, Test Conc(μM):ATP Conc(μM) 1:25

kinases (Homo sapiens, UniProt P06493), sequence (P06493 whole entry): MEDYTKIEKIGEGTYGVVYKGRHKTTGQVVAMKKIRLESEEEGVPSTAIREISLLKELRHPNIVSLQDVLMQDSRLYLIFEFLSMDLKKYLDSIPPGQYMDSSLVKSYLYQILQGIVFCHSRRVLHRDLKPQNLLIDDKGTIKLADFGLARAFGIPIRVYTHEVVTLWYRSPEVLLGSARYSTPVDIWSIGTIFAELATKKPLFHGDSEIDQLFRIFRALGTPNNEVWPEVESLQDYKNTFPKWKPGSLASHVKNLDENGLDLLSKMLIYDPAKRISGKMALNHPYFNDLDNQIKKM
kinases (Homo sapiens, UniProt P36507), sequence (P36507 whole entry): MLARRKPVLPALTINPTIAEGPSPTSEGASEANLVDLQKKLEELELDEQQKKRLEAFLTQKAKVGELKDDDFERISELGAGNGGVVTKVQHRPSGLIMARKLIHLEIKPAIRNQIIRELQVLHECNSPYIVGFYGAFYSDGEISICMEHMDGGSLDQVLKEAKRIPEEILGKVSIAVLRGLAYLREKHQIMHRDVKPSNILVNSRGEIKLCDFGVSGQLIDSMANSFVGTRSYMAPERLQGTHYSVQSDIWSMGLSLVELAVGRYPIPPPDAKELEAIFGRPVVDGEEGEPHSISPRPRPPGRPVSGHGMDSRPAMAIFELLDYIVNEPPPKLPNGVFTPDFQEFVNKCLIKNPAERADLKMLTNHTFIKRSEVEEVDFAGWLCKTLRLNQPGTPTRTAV
kinases (Homo sapiens, UniProt Q15569), sequence (Q15569 whole entry): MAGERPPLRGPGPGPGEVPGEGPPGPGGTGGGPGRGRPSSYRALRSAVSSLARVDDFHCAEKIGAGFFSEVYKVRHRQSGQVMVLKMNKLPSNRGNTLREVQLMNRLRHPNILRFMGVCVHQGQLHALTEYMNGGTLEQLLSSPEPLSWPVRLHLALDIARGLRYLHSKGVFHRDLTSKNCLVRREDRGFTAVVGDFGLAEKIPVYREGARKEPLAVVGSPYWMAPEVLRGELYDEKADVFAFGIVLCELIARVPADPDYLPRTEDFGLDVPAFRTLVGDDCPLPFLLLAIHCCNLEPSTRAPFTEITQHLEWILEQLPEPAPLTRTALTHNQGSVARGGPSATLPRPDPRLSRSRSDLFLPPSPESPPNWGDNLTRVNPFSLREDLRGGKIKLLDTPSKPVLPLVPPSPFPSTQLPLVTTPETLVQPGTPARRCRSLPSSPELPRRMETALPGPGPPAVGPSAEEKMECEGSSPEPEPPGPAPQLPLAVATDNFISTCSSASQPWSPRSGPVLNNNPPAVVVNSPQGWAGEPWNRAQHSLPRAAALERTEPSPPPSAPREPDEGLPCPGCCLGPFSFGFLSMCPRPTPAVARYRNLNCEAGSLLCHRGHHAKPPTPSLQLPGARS
kinases (Homo sapiens, UniProt P53350), sequence (P53350 whole entry): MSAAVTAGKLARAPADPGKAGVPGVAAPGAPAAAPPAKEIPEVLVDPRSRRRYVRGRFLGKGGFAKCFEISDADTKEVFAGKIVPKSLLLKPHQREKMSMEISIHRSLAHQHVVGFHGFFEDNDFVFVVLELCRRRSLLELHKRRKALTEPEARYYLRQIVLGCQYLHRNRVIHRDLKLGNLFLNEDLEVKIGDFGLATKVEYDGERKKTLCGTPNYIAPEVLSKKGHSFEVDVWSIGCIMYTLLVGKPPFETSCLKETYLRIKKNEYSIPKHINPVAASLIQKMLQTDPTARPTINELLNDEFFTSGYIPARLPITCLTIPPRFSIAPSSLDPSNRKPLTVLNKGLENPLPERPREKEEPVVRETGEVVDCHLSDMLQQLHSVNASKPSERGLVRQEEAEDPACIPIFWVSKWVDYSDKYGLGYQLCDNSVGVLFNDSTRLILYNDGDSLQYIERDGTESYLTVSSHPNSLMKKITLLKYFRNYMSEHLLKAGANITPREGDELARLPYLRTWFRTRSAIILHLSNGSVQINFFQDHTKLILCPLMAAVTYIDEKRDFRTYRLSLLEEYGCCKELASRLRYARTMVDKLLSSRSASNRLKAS
kinases (Homo sapiens, UniProt Q9Y616), sequence (Q9Y616 whole entry): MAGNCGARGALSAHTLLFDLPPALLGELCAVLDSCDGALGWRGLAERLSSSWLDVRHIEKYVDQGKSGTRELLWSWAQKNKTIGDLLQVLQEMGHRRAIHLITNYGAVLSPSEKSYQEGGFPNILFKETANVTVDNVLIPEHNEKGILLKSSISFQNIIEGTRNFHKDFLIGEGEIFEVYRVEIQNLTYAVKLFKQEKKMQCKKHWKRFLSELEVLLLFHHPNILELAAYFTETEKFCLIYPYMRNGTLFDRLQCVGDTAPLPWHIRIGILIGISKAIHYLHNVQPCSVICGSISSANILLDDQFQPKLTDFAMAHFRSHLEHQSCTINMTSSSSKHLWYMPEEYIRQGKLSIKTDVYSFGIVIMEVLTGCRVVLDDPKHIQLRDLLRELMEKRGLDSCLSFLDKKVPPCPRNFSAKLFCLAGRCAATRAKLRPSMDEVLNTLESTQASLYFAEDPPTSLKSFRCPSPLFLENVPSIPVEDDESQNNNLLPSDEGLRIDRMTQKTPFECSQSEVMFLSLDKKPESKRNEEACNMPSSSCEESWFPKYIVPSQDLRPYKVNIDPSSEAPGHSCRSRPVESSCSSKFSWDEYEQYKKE
kinases (Homo sapiens, UniProt P29376), sequence (P29376 17-864): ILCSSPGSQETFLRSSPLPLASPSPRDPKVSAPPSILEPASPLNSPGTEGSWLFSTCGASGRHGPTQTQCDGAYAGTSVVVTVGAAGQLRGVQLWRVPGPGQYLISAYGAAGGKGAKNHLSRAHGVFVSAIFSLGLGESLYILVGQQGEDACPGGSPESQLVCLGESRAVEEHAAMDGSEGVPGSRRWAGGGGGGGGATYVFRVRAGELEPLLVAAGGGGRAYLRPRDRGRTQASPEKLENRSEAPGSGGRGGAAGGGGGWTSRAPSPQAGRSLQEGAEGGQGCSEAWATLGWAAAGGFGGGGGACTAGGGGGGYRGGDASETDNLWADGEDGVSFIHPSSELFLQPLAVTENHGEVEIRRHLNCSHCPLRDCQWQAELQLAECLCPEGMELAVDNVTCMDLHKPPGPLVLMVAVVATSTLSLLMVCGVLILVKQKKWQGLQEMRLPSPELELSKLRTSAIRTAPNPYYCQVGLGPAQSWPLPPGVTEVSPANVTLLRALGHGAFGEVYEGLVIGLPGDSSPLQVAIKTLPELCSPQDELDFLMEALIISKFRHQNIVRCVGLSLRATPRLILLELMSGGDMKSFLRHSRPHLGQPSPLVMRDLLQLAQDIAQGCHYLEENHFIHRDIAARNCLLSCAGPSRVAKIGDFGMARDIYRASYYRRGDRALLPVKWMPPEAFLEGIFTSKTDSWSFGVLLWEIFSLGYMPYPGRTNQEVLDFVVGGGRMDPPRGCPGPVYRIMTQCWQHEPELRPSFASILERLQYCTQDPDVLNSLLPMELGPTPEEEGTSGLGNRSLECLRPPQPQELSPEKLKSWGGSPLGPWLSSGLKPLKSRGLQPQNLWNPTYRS
kinases (Homo sapiens, UniProt Q8IY84), sequence (Q8IY84 whole entry): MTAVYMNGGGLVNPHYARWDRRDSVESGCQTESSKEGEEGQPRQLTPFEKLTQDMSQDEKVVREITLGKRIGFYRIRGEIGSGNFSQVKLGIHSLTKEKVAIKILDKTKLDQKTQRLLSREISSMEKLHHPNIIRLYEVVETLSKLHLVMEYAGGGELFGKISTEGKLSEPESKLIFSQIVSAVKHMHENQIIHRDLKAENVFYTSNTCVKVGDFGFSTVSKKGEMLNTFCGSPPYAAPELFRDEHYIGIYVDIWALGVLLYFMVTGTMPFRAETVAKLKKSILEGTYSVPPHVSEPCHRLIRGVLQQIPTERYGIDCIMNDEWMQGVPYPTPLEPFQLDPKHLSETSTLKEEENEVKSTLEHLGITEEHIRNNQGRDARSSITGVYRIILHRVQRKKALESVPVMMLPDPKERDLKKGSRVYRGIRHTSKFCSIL
kinases (Homo sapiens, UniProt Q07912), sequence (Q07912 whole entry): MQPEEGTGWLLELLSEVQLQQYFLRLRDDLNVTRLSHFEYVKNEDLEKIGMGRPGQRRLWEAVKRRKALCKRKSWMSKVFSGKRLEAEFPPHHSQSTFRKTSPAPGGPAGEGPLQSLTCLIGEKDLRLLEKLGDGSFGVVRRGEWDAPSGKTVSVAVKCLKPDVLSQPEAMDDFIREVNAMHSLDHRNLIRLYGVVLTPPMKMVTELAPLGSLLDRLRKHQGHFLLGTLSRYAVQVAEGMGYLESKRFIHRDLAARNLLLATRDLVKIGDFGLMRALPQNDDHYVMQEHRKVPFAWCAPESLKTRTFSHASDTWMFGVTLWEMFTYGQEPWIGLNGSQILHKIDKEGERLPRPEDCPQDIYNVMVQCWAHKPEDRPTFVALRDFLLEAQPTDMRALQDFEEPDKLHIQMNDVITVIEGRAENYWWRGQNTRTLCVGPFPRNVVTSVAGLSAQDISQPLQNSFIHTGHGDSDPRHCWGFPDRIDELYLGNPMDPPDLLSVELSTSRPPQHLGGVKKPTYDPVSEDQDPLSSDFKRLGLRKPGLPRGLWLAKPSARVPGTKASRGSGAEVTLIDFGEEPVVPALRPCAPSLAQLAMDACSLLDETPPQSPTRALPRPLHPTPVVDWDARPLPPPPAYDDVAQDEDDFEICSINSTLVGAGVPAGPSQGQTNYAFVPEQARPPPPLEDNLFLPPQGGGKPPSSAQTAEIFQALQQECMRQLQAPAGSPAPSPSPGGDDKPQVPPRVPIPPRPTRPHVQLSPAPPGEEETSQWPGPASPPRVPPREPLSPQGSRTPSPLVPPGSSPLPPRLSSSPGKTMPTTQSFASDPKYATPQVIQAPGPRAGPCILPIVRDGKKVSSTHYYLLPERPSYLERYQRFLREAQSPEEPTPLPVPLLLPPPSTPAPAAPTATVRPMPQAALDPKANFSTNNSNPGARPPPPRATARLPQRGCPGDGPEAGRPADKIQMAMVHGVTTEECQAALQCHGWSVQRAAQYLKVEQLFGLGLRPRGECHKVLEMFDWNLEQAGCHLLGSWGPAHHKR

| Compound | Mean Inhib (%) (kinases [1]) | Mean Inhib (%) (kinases [2]) | Mean Inhib (%) (kinases [3]; [29]) | Mean Inhib (%) (kinases [3]; [30]) | Mean Inhib (%) (kinases [4]) | Mean Inhib (%) (kinases [5]) | Mean Inhib (%) (kinases [6]) | Mean Inhib (%) (kinases [7]) | Mean Inhib (%) (kinases [8]) | Mean Inhib (%) (kinases [9]) | Mean Inhib (%) (kinases [10]) | Mean Inhib (%) (kinases [11]) | Mean Inhib (%) (kinases [12]) | Mean Inhib (%) (kinases [13]) | Mean Inhib (%) (kinases [14]) | Mean Inhib (%) (kinases [15]) | Mean Inhib (%) (kinases [16]) | Mean Inhib (%) (kinases [17]) | Mean Inhib (%) (kinases [18]) | Mean Inhib (%) (kinases [19]; [31]) | other results |
| --- | --- | --- | --- | --- | --- | --- | --- | --- | --- | --- | --- | --- | --- | --- | --- | --- | --- | --- | --- | --- | --- |
| Cc1ccc(NC(=O)c2ccnc(N3CCOCC3)c2)cc1Nc1ccnc(N2CC(C)OC(C)C2)n1 (stereo not drawn) [compound 3] | −3.2 | −6.4 | 1.7 | −1.0 | −5.6 | −0.8 | 3.0 | 4.1 | −1.4 | −5.8 | −9.0 | 11.9 | 0.2 | −3.5 | 0.8 | 14.4 | −0.3 | 6.7 | −0.9 | −1.0 | Mean Inhib (%) (kinases [19]; [32]): 3.8%; Mean Inhib (%) (kinases [20]): 5.6%; Mean Inhib (%) (kinases [21]): −1.7%; Mean Inhib (%) (kinases [22]): −5.6%; Mean Inhib (%) (kinases [23]): 20.4%; Mean Inhib (%) (kinases [24]; Test Conc(μM):ATP Conc(μM) 1:300): −3.6%; Mean Inhib (%) (kinases [25]): −3.6%; Mean Inhib (%) (kinases [26]): 6.0%; Mean Inhib (%) (kinases [27]): 1.9%; Mean Inhib (%) (kinases [28]): −2.5% |
| Cc1cc(Oc2ccnc(Nc3ccc(S(N)(=O)=O)cc3)c2)c(-c2ccccn2)nc1C [compound 65] | 1.8 | −3.9 | −0.2 | 10.4 | −3.5 | 4.2 | 9.6 | 58.4 | −2.6 | 0.4 | −0.7 | 107.0 | 6.5 | 7.1 | 3.4 | 5.4 | 23.3 | 55.3 | −0.4 | 25.4 | Mean Inhib (%) (kinases [19]; [32]): 3.2%; Mean Inhib (%) (kinases [20]): 0.4%; Mean Inhib (%) (kinases [21]): 1.3%; Mean Inhib (%) (kinases [22]): −1.9%; Mean Inhib (%) (kinases [23]): −13.8%; Mean Inhib (%) (kinases [24]; Test Conc(μM):ATP Conc(μM) 0.25): 13.7%; Mean Inhib (%) (kinases [25]): 3.0%; Mean Inhib (%) (kinases [26]): 8.4%; Mean Inhib (%) (kinases [27]): 54.2%; Mean Inhib (%) (kinases [28]): 15.5% |
